Experimental data from PubChem BioAssay AID2060601 (Molecular Pharmacology Branch, DTP, NCI, 2025).

Test system: 874868-142-R-J2-PDC complex spheroids, growth % test/control
Experiment: Anticancer human tumor 874868-142-R-J2-PDC patient-derived head and neck squamous carcinoma cell line growth inhibition [CLK]
Settings: for IC50: curve of first compound; for viability, T/C: stronger effect = lower value
Summary of the method: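 Multi-cell-type spheroids combined patient-derived tumor cells with HUVEC endothelial cells and human mesenchymal stem cells. Paired agents were dosed in half-log steps down from about clinical Cmax, or from 10 microM where Cmax was unknown.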
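Note: spheroids exposed to the compounds for 7 days.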
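Throughout, for viability, T/C: 100% = DMSO vehicle control viability.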

For `CC1COCCN1c1cc(C2(S(C)(=N)=O)CC2)nc(-c2ccnc3[nH]ccc23)n1` (configuration not stated) + CN1CCN(c2cc(C(=O)Nc3cc4cc(-c5cnn(C)c5)ccc4cn3)ccn2)CC1, the IC50 (second compound 0.0316 µM) was 1.9 µM, the IC50 (second compound 0.1 µM) was 0.578 µM and the IC50 (second compound 0.316 µM) was less than 0.0316 µM. For the same compound, the IC50 (second compound 1 µM) was less than 0.0316 µM, the IC50 (second compound 3.16 µM) was less than 0.0316 µM and the IC50 (second compound 10 µM) was less than 0.0316 µM. The viability, T/C (second compound 0.0316 µM, first compound 0.0316 µM) was 87.7%, the viability, T/C (second compound 0.0316 µM, first compound 0.1 µM) was 82.5% and the viability, T/C (second compound 0.0316 µM, first compound 0.316 µM) was 71.3%. The viability, T/C (second compound 0.0316 µM, first compound 1 µM) was 73.5%, the viability, T/C (second compound 0.0316 µM, first compound 3.16 µM) was 31.2% and the viability, T/C (second compound 0.0316 µM, first compound 10 µM) was 27.6%. For the same compound, the viability, T/C (second compound 0.1 µM, first compound 0.0316 µM) was 68.9%, the viability, T/C (second compound 0.1 µM, first compound 0.1 µM) was 60.9% and the viability, T/C (second compound 0.1 µM, first compound 0.316 µM) was 59.3%. For the same compound, the viability, T/C (second compound 0.1 µM, first compound 1 µM) was 42%, the viability, T/C (second compound 0.1 µM, first compound 3.16 µM) was 20.8% and the viability, T/C (second compound 0.1 µM, first compound 10 µM) was 20.9%. It also gave a viability, T/C (second compound 0.316 µM, first compound 0.0316 µM) of 16.6%, a viability, T/C (second compound 0.316 µM, first compound 0.1 µM) of 19.8% and a viability, T/C (second compound 0.316 µM, first compound 0.316 µM) of 18.4%. It also gave a viability, T/C (second compound 0.316 µM, first compound 1 µM) of 10.8%, a viability, T/C (second compound 0.316 µM, first compound 3.16 µM) of 13.7% and a viability, T/C (second compound 0.316 µM, first compound 10 µM) of 7.51%. The viability, T/C (second compound 1 µM, first compound 0.0316 µM) was 0.41%, the viability, T/C (second compound 1 µM, first compound 0.1 µM) was 0.3% and the viability, T/C (second compound 1 µM, first compound 0.316 µM) was 0.49%. The viability, T/C (second compound 1 µM, first compound 1 µM) was 0.28%, the viability, T/C (second compound 1 µM, first compound 3.16 µM) was 0.29% and the viability, T/C (second compound 1 µM, first compound 10 µM) was 0.24%. The viability, T/C (second compound 3.16 µM, first compound 0.0316 µM) was 0.19%, the viability, T/C (second compound 3.16 µM, first compound 0.1 µM) was 0.25% and the viability, T/C (second compound 3.16 µM, first compound 0.316 µM) was 0.22%. For the same compound, the viability, T/C (second compound 3.16 µM, first compound 1 µM) was 0.29%, the viability, T/C (second compound 3.16 µM, first compound 3.16 µM) was 1.32% and the viability, T/C (second compound 3.16 µM, first compound 10 µM) was 0.36%. For the same compound, the viability, T/C (second compound 10 µM, first compound 0.0316 µM) was 5.76%, the viability, T/C (second compound 10 µM, first compound 0.1 µM) was 0.21% and the viability, T/C (second compound 10 µM, first compound 0.316 µM) was 1.83%. The viability, T/C (second compound 10 µM, first compound 1 µM) was 0.21%, the viability, T/C (second compound 10 µM, first compound 3.16 µM) was 0.21% and the viability, T/C (second compound 10 µM, first compound 10 µM) was 0.23%.
